Measurements from patent publication US20230218624A1 (Urovant Sciences GmbH, priority 2017, published 2023).

What was measured:
patients with OAB = assay: Phase 2b cardiovascular safety: orthostatic AEs, HR and BP changes; type: in vivo, human; details: for DBP change from baseline ≥5 mm Hg, subjects / DBP change from baseline ≥10 bpm, subjects / DBP change from baseline ≥15 bpm, subjects / HR change from baseline ≥5 bpm, subjects / HR change from baseline ≥10 bpm, subjects / HR change from baseline ≥15 bpm, subjects / SBP change from baseline ≥5 mm Hg, subjects / SBP change from baseline ≥10 bpm, subjects / SBP change from baseline ≥15 bpm, subjects: 3 consecutive post-baseline visits
Text: None led to discontinuation. The overall incidence of orthostatic symptoms was low.
Small differences in the percent of subjects exceeding categorical heart rate and blood pressure thresholds for vibegron were similar to those in the tolterodine arm.

men and women with OAB = assay: Phase 2b efficacy study in men and women with OAB; type: in vivo, human; details: week 8
Text: Part 2 was designed to continue to assess the safety and efficacy of concomitant dosing. […] Subjects in both Part 1 and Part 2 had the option of enrolling in a 1-year extension. Participants were required to keep a voiding diary, recording the occurrence of each strong urge, total incontinence, and urge incontinence episode. Efficacy data for Part 1 and Part 2 are summarized herein.
The total number of urgency incontinence episodes must have exceeded the total number of stress incontinence episodes for all subjects.
Conversely, a dose dependent effect on urge incontinence or total incontinence was not observed.

Structure (SMILES): O=C(Nc1ccc(C[C@@H]2CC[C@H]([C@H](O)c3ccccc3)N2)cc1)[C@@H]1CCc2nccc(=O)n21 [Vibegron, (6S)—N-[4-[[(2S,5R)-5-[(R)-hydroxy(phenyl)methyl]pyrrolidin-2-yl]methyl]phenyl]-4-oxo-7,8-dihydro-6H-pyrrolo[1,2-a]pyrimidine-6-carboxamide]
- SBP and DBP mean changes at Week 1 and mean maximum changes over 8 weeks, difference between placebo and vibegron (patients with OAB; 50 mg and 100 mg): < 1 mm Hg
- HR mean maximum changes over 8 weeks, comparable to placebo (patients with OAB; all doses): < 2 bpm
- DBP change from baseline, mean (week 1) (patients with OAB; vibegron 3 mg): −0.37 mm Hg
- DBP change from baseline, mean maximum (week 1 to 8) (patients with OAB; vibegron 3 mg): 5.03 mm Hg
- HR change from baseline, mean (week 1) (patients with OAB; vibegron 3 mg): 0.36 bpm
- HR change from baseline, mean maximum (week 1 to 8) (patients with OAB; vibegron 3 mg): 5.57 bpm
- SBP change from baseline, mean (week 1) (patients with OAB; vibegron 3 mg): −0.35 mm Hg
- SBP change from baseline, mean maximum (week 1 to 8) (patients with OAB; vibegron 3 mg): 7.14 mm Hg
- DBP change from baseline ≥5 mm Hg, subjects (patients with OAB; vibegron 3 mg): (10.0) %
- DBP change from baseline ≥10 bpm, subjects (patients with OAB; vibegron 3 mg): (2.1) %
- DBP change from baseline ≥15 bpm, subjects (patients with OAB; vibegron 3 mg): (0.7) %
- HR change from baseline ≥5 bpm, subjects (patients with OAB; vibegron 3 mg): (11.4) %
- HR change from baseline ≥10 bpm, subjects (patients with OAB; vibegron 3 mg): (3.6) %
- HR change from baseline ≥15 bpm, subjects (patients with OAB; vibegron 3 mg): (0.7) %
- SBP change from baseline ≥5 mm Hg, subjects (patients with OAB; vibegron 3 mg): (15.0) %
- SBP change from baseline ≥10 bpm, subjects (patients with OAB; vibegron 3 mg): (7.1) %
- SBP change from baseline ≥15 bpm, subjects (patients with OAB; vibegron 3 mg): (2.9) %
- DBP change from baseline, mean (week 1) (patients with OAB; vibegron 15 mg): 0.03 mm Hg
- DBP change from baseline, mean maximum (week 1 to 8) (patients with OAB; vibegron 15 mg): 6.37 mm Hg
- HR change from baseline, mean (week 1) (patients with OAB; vibegron 15 mg): 0.35 bpm
- HR change from baseline, mean maximum (week 1 to 8) (patients with OAB; vibegron 15 mg): 6.56 bpm
- SBP change from baseline, mean (week 1) (patients with OAB; vibegron 15 mg): −0.34 mm Hg
- SBP change from baseline, mean maximum (week 1 to 8) (patients with OAB; vibegron 15 mg): 8.93 mm Hg
- subjects with orthostatic related AEs (patients with OAB; vibegron 15 mg group): 0.3%
- DBP change from baseline ≥5 mm Hg, subjects (patients with OAB; vibegron 15 mg): (11.4) %
- DBP change from baseline ≥10 bpm, subjects (patients with OAB; vibegron 15 mg): (2.3) %
- DBP change from baseline ≥15 bpm, subjects (patients with OAB; vibegron 15 mg): (0.8) %
- HR change from baseline ≥5 bpm, subjects (patients with OAB; vibegron 15 mg): (12.9) %
- HR change from baseline ≥10 bpm, subjects (patients with OAB; vibegron 15 mg): (3.0) %
- HR change from baseline ≥15 bpm, subjects (patients with OAB; vibegron 15 mg): (0.8) %
- SBP change from baseline ≥5 mm Hg, subjects (patients with OAB; vibegron 15 mg): (16.7) %
- SBP change from baseline ≥10 bpm, subjects (patients with OAB; vibegron 15 mg): (6.8) %
- SBP change from baseline ≥15 bpm, subjects (patients with OAB; vibegron 15 mg): (0.8) %
- DBP change from baseline, mean (week 1) (patients with OAB; vibegron 50 mg): −0.70 mm Hg
- DBP change from baseline, mean maximum (week 1 to 8) (patients with OAB; vibegron 50 mg): 4.19 mm Hg
- HR change from baseline, mean (week 1) (patients with OAB; vibegron 50 mg): 0.29 bpm
- HR change from baseline, mean maximum (week 1 to 8) (patients with OAB; vibegron 50 mg): 5.49 bpm
- SBP change from baseline, mean (week 1) (patients with OAB; vibegron 50 mg): −0.79 mm Hg
- SBP change from baseline, mean maximum (week 1 to 8) (patients with OAB; vibegron 50 mg): 7.01 mm Hg
- subjects with orthostatic related AEs (patients with OAB; vibegron 50 mg+tolterodine ER/vibegron 50 mg treatment group): 0.8%
- DBP change from baseline ≥5 mm Hg, subjects (patients with OAB; vibegron 50 mg): (7.6) %
- DBP change from baseline ≥10 bpm, subjects (patients with OAB; vibegron 50 mg): (3.5) %
- DBP change from baseline ≥15 bpm, subjects (patients with OAB; vibegron 50 mg): (0.7) %
- HR change from baseline ≥5 bpm, subjects (patients with OAB; vibegron 50 mg): (8.3) %
- HR change from baseline ≥10 bpm, subjects (patients with OAB; vibegron 50 mg): (2.8) %
- HR change from baseline ≥15 bpm, subjects (patients with OAB; vibegron 50 mg): (0.7) %
- SBP change from baseline ≥5 mm Hg, subjects (patients with OAB; vibegron 50 mg): (16.7) %
- SBP change from baseline ≥10 bpm, subjects (patients with OAB; vibegron 50 mg): (9.7) %
- SBP change from baseline ≥15 bpm, subjects (patients with OAB; vibegron 50 mg): (2.1) %
- DBP change from baseline, mean (week 1) (patients with OAB; vibegron 100 mg): −0.69 mm Hg
- DBP change from baseline, mean maximum (week 1 to 8) (patients with OAB; vibegron 100 mg): 4.80 mm Hg
- HR change from baseline, mean (week 1) (patients with OAB; vibegron 100 mg): 0.35 bpm
- HR change from baseline, mean maximum (week 1 to 8) (patients with OAB; vibegron 100 mg): 6.12 bpm
- SBP change from baseline, mean (week 1) (patients with OAB; vibegron 100 mg): −0.77 mm Hg
- SBP change from baseline, mean maximum (week 1 to 8) (patients with OAB; vibegron 100 mg): 6.51 mm Hg
- subjects with orthostatic related AEs (patients with OAB; vibegron 100 mg group): 1.1%
- DBP change from baseline ≥5 mm Hg, subjects (patients with OAB; vibegron 100 mg): (13.1) %
- DBP change from baseline ≥10 bpm, subjects (patients with OAB; vibegron 100 mg): (3.4) %
- HR change from baseline ≥5 bpm, subjects (patients with OAB; vibegron 100 mg): (11.8) %
- HR change from baseline ≥10 bpm, subjects (patients with OAB; vibegron 100 mg): (3.0) %
- HR change from baseline ≥15 bpm, subjects (patients with OAB; vibegron 100 mg): (0.4) %
- SBP change from baseline ≥5 mm Hg, subjects (patients with OAB; vibegron 100 mg): (11.8) %
- SBP change from baseline ≥10 bpm, subjects (patients with OAB; vibegron 100 mg): (4.2) %
- SBP change from baseline ≥15 bpm, subjects (patients with OAB; vibegron 100 mg): (1.3) %
- Micturitions, change from baseline in average number of micturitions, difference in LS means (men and women with OAB; 50 mg - Placebo): −0.64
- Total incontinence, change from baseline in average number of episodes, difference in LS means (men and women with OAB; 50 mg - Placebo): −0.60
- Urgency Episodes, change from baseline in average number of episodes, difference in LS means (men and women with OAB; 50 mg - Placebo): −0.76
- Urgency incontinence, change from baseline in average number of episodes, difference in LS means (men and women with OAB; 50 mg - Placebo): −0.72
- Volume voided, change from baseline in average volume per void over one diary day, difference in LS means (men and women with OAB; 50 mg - Placebo): 29.1 mL
- Micturitions, change from baseline in average number of micturitions, difference in LS means (men and women with OAB; 100 mg - 50 mg): −0.27
- Total incontinence, change from baseline in average number of episodes, difference in LS means (men and women with OAB; 100 mg - 50 mg): 0.02
